Values of other authors as cited in US10481160B2, “Combined anticancer drug sensitivity-determining marker” (KEIO UNIVERSITY, priority 2012, dated 2019).

Tested on: advanced/recurrent colorectal cancer

SMILES: N.N.O=C([O-])C1(C(=O)[O-])CCC1.[Pt+2] [CBDCA, carboplatin]
- anti-tumor effect on colorectal cancer: ineffective

SMILES: [NH2][Pt]([NH2])([Cl])[Cl] [CDDP, cisplatin]
- anti-tumor effect on colorectal cancer: ineffective

SMILES: O=C1[O][Pt]2([NH][C@@H]3CCCC[C@H]3[NH]2)[O]C1=O [L-OHP, Oxaliplatin]
- anti-tumor effect on colorectal cancer: exhibits anti-tumor effect
